Like-named read-outs stand apart in the source and are kept apart here.
Experiments:
[1] = MTS proliferation assay (72 h read-out); format: cell-based; conditions: MRC5 cells
Method in brief: (§1)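 Viability was read by MTS absorbance at 492 nm after 3 h with reagent. Before that, cells plated a day earlier at 1.5×10^3–10^4 per well had been incubated with test compound at final concentrations of 0.001–10 μM for 72 h; activity is given as category scores A–D.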

[2] = system: tumor cells; test: MTS proliferation assay (72 h read-out); format: cell-based
Method in brief: as §1

[3] = system: H460; test: Colony Forming Units (read-out 6 days), H460; format: cell-based, human; conditions: colonies containing more than 30 cells, read-out: Colony Forming Units, score based on IC50, H460
Experimental: (§2) Appropriate numbers of cells (100-150 cells, dependent on the cell type) are being seeded out in 1 ml complete medium into 6-well plates and allowed to attach for 48 h. The compounds are added after 48 h in 500 μl solution. The concentrations are in the range of 0.001 μM-3 μM. Control plates receive the same volume of medium containing the appropriate amount of DMSO. The plates are incubated for 5-7 days at cell culture conditions and subsequently scored for growth of colonies (containing more than 30 cells) by using a microscope.

[4] = Hoechst 33342 nuclear staining (48 h read-out); format: cell-based
Method in brief: (§3)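 Adherent cells pre-spread 24 h before dosing, suspension cells dosed at seeding; compounds at 0.001 μM-10 μM final, 48 h at culture conditions. Hoechst 33342 (2-5 μg/ml) added for 30 min, then fluorescence microscopy scoring of apoptotic nuclear fraction and apoptosis-specific morphology, reported as scores A-D.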

[5] = system: tumor cells; test: Hoechst 33342 nuclear staining (48 h read-out); format: cell-based
Method in brief: as §3

[6] = Mitochondrial membrane potential, JC-1 (read-out 48 h); format: cell-based; conditions: PBL, JC-1, 48 h
Method in brief: (§4)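 Tumor cells were treated with test compounds (adherent cells after 24 h of attachment, suspension cells immediately), medium holding up to 5% DMSO. After 48 h, JC-1 (2-5 μg/ml in added medium) was applied for 30 min. Fluorescence microscopy (FITC/TRITC filters) scored the fraction of cells with dissipated mitochondrial membrane potential as categories A-D.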

[7] = system: tumor cells; test: as above; format: cell-based; conditions: JC-1, 48 h
Method in brief: as §4

[8] = system: HeLa; test: Colony Forming Units (read-out 6 days), HeLa; format: cell-based, human; conditions: colonies containing more than 30 cells, read-out: Colony Forming Units, score based on IC50, HeLa
Experimental: as §2

[9] = Jily cells, read-out: MTS proliferation assay IC50, Jily
[10] = PBL, read-out: Hoechst 33342 nuclear staining EC50, PBL
[11] = Jily cells, read-out: Hoechst 33342 nuclear staining EC50, Jily
[12] = Jily cells, read-out: Mitochondrial membrane potential (read-out 48 h) Jily
[13] = HT1080 cells, read-out: MTS proliferation assay IC50, HT1080
[14] = HeLa cells, read-out: MTS proliferation assay IC50, HeLa
[15] = Jurkat cells, read-out: MTS proliferation assay IC50, Jurkat
[16] = MRC5 cells, read-out: Hoechst 33342 nuclear staining EC50, MRC5
[17] = HeLa cells, read-out: Hoechst 33342 nuclear staining EC50, HeLa
[18] = Jurkat cells, read-out: Hoechst 33342 nuclear staining EC50, Jurkat
[19] = HeLa cells, read-out: Mitochondrial membrane potential (read-out 48 h) HeLa
[20] = Jurkat cells, read-out: Mitochondrial membrane potential (read-out 48 h) Jurkat
[21] = MCF7 cells, read-out: Mitochondrial membrane potential (read-out 48 h) MCF7

IC50 [2, 9]	EC50 [4, 10]	EC50 [5, 11]	EC50 [6]	EC50 [7, 12]	IC50 [2, 13]	IC50 [2, 14]	IC50 [2, 15]	IC50 [3]	EC50 [5, 17]	EC50 [5, 18]	EC50 [7, 19]	EC50 [7, 20]	EC50 [7, 21]	IC50 [8]	SMILES	IC50 [1]	EC50 [4, 16]	also measured
10 to 100 nM	> 1000 nM	< 10 nM	> 1000 nM	10 to 100 nM											COc1ccc2oc(C(=O)c3cc(F)ccc3N3CCOCC3)cc2c1 [Example 38, 2-(5-Fluoro-2-morpholinobenzoyl)-5-methoxybenzofuran]			IC50 ([1]; Homo sapiens): 10 to 100 nM; IC50 ([2]; Homo sapiens, HT-1080, HT1080 cells, read-out: MTS proliferation assay IC50, HT1080): 10 to 100 nM; IC50 ([2]; Homo sapiens, HeLa cells, read-out: MTS proliferation assay IC50, HeLa): 10 to 100 nM; IC50 ([2]; Homo sapiens, Jurkat cells, read-out: MTS proliferation assay IC50, Jurkat): 10 to 100 nM; IC50 ([3]; Homo sapiens, NCI-H460, 144 h): < 10 nM; EC50 ([4]; Homo sapiens, MRC5 cells, read-out: Hoechst 33342 nuclear staining EC50, MRC5): 10 to 100 nM; EC50 ([5]; Homo sapiens, HeLa cells, read-out: Hoechst 33342 nuclear staining EC50, HeLa): 10 to 100 nM; EC50 ([5]; Homo sapiens, Jurkat cells, read-out: Hoechst 33342 nuclear staining EC50, Jurkat): < 10 nM; EC50 ([7]; Homo sapiens, HeLa cells, read-out: Mitochondrial membrane potential (read-out 48 h) HeLa): 10 to 100 nM; EC50 ([7]; Homo sapiens, Jurkat cells, read-out: Mitochondrial membrane potential (read-out 48 h) Jurkat): 10 to 100 nM; EC50 ([7]; Homo sapiens, MCF7 cells, read-out: Mitochondrial membrane potential (read-out 48 h) MCF7): 10 to 100 nM; IC50 ([8]; Homo sapiens, 144 h): < 10 nM
< 10 nM	> 1000 nM	< 10 nM	100 to 1000 nM	< 10 nM	< 10 nM	< 10 nM	< 10 nM	< 10 nM	< 10 nM	< 10 nM	10 to 100 nM	< 10 nM	10 to 100 nM	10 to 100 nM	CCOc1ccc(F)cc1C(=O)c1oc2ccc(OC)cc2c1N [Example 48]	< 10 nM	< 10 nM	
< 10 nM	> 1000 nM	10 to 100 nM	> 1000 nM	10 to 100 nM	< 10 nM	< 10 nM		10 to 100 nM	10 to 100 nM	< 10 nM	10 to 100 nM	10 to 100 nM	10 to 100 nM	10 to 100 nM	CCOc1ccccc1C(=O)c1cc2cc(OC)ccc2o1 [Example 53]	< 10 nM	100 to 1000 nM	
10 to 100 nM	> 1000 nM	10 to 100 nM	> 1000 nM	10 to 100 nM	10 to 100 nM	10 to 100 nM	< 10 nM	10 to 100 nM	100 to 1000 nM	10 to 100 nM	100 to 1000 nM	10 to 100 nM	100 to 1000 nM	10 to 100 nM	CCOc1ccc(F)cc1C(=O)c1oc2ccc(OC)cc2c1NC(=O)COC [Example 58]	10 to 100 nM	> 1000 nM	
< 10 nM	> 1000 nM	10 to 100 nM	> 1000 nM	10 to 100 nM	10 to 100 nM	10 to 100 nM	< 10 nM	10 to 100 nM	100 to 1000 nM	< 10 nM	100 to 1000 nM	10 to 100 nM	> 1000 nM	10 to 100 nM	Nc1c(C(=O)c2ccccc2OCC(F)(F)F)oc2ccc(Cl)cc12 [Example 61]	10 to 100 nM	> 1000 nM	
< 10 nM	> 1000 nM	10 to 100 nM	> 1000 nM	10 to 100 nM	10 to 100 nM	10 to 100 nM	< 10 nM	10 to 100 nM	10 to 100 nM	< 10 nM	10 to 100 nM	< 10 nM	> 1000 nM	10 to 100 nM	CCOc1ccc(F)cc1C(=O)c1cc2cc(O)ccc2o1 [Example 64]	10 to 100 nM	100 to 1000 nM	
< 10 nM	> 1000 nM	< 10 nM	> 1000 nM	10 to 100 nM	< 10 nM	< 10 nM		< 10 nM	10 to 100 nM	10 to 100 nM	100 to 1000 nM	10 to 100 nM	100 to 1000 nM	< 10 nM	CCOc1ccc2oc(C(=O)c3cc(F)ccc3OCC)cc2c1 [Example 66]	< 10 nM	100 to 1000 nM	
< 10 nM	> 1000 nM	< 10 nM	> 1000 nM	< 10 nM	< 10 nM	10 to 100 nM	< 10 nM	10 to 100 nM	< 10 nM	< 10 nM	< 10 nM	< 10 nM	10 to 100 nM	10 to 100 nM	CCOc1ccc(F)cc1C(=O)c1oc2ccc(O)cc2c1N [Example 75]	< 10 nM	< 10 nM	
